Test results published in patent publication US20220162610A1, “NOVEL RNA TRANSCRIPT” (PTC Therapeutics, Inc., priority 2020, published 2022).

Experiments:
HTT pre-mRNA = assay: Ampliseq/RNAseq analysis of intron 49 pseudoexon inclusion and HTT expression in different cell types; format: cell-based, human; details: for inclusion of intron 49 pseudoexon: HD fibroblasts, SH-SY5Y, TK6, MRC-5 cells
MDR1 = molecular target: T1, MDR1 (Homo sapiens, UniProt P08183); assay: MDCK-MDR1 efflux assay; format: in vitro ADME; details: 10 μM, MDCK-MDR1 and MDCK-WT monolayers, 1 hour
T1 construct: host or cells: MDCK (Madin-Darby Canine Kidney) cells expressing MDR1
T1 sequence (P08183 whole entry): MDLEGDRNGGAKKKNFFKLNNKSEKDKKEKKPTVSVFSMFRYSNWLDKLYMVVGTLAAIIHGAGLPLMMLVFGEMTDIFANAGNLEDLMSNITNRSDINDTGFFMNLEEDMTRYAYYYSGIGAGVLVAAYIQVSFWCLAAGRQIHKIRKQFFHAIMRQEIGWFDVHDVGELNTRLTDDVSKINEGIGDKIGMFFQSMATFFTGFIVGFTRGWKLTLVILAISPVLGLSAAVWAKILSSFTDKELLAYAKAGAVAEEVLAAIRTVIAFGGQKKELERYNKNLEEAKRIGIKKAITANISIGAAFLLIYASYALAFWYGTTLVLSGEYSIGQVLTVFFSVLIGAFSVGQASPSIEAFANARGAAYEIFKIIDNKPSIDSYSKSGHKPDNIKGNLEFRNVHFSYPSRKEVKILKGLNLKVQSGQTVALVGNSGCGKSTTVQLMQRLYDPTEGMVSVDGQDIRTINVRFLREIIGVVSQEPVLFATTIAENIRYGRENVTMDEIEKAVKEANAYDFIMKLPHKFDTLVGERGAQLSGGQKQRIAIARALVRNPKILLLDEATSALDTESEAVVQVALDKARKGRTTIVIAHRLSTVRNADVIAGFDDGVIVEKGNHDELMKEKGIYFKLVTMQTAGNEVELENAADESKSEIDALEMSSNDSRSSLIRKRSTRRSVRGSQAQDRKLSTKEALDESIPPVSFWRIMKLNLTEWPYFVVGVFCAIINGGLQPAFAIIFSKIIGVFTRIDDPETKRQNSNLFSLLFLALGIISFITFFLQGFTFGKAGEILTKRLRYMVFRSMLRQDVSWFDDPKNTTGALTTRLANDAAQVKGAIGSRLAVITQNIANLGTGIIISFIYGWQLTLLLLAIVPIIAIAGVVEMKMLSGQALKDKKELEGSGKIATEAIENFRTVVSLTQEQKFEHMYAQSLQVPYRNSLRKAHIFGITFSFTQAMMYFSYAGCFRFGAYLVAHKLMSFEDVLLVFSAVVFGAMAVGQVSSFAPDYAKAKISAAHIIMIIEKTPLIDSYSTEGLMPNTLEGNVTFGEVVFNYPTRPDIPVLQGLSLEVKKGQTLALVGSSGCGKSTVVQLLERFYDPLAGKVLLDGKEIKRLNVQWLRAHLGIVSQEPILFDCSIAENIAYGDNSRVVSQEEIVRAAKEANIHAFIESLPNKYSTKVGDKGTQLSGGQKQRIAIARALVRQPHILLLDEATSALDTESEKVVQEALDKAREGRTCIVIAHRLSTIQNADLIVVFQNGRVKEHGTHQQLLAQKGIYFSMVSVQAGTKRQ
Protocol: The MDR1 efflux assay was conducted at Absorption System LLC (Exton, Pa.). Briefly, MDCK-MDR1 and MDCK-WT cell monolayers were grown to confluence on collagen-coated, microporous membranes in 12-well assay plates (Thermofisher). Compound solutions (10 μM) in permeability assay buffer (Hanks' balanced salt solution (HBSS), 10 mM HEPES, 15 mM glucose; pH of 7.4) were placed in the donor chamber. The receiver chamber was filled with assay buffer plus 1% BSA. Cell monolayers were dosed on the apical side (A-to-B) or basolateral side (B-to-A) and incubated at 37° C. (5% CO2, 100% relative humidity). Sampling from the donor chambers was performed at 0 and 1 hour; and from the receiver chambers at 1 hour. Each determination was performed in duplicate. The flux of lucifer yellow was also measured post-experimentally for each monolayer to ensure no damage was inflicted to the cell monolayers during the flux period. All samples were assayed by LC-MS/MS using electrospray ionisation. The apparent permeability (Papp) and percent recovery was determined using the following equation: […]
dCr/dt represents the slope of the cumulative receiver concentration versus time in μM/s; Vr is the volume of the receiver compartment (cm3); Vd is the volume of the donor compartment in (cm3); A is the area of the insert (1.13 cm2 for 12-well); C0 is the average measured concentration of the donor chamber at time zero in μM; Net Efflux ratio (ER) is defined as […].

[1] = Unbound brain partition coefficient (Kp,uu) from mouse PK studies; format: in vivo; details: FVB (WT littermates of the BACHD colony), brain and plasma (unbound), oral, 10 mg/kg, average over animals of multiple mouse PK studies
Protocol: Oral pharmacokinetics (PK) of compounds was evaluated in WT littermates from the BACHD colony (FVB background). Mice were treated with test compounds (10 mg/kg) by oral gavage in 0.5% hydroxypropylmethyl cellulose (HPMC) with 0.1% Tween 80. Blood was collected by terminal cardiac puncture at specified time points (3 mice per time point) and centrifuged to generate plasma. Brain tissue was collected at the time of blood collection and homogenized in water. Protein was precipitated from plasma and brain homogenates with acetonitrile, methanol mixture (5:1, v:v) containing an internal standard that is a close analog of the test compounds. The mixture was filtered through an EMD Millipore MultiScreen™ Solvinert Filter Plate (MSRLN04, Millipore, Burlington, Mass.). Calibration standards were prepared in the same matrix and processed with the testing samples. Filtrates were analysed using Acquity ultra performance liquid chromatography (UPLC) system (Waters Corporation) tandem with Xevo TQ-s Spectrometer (Waters Corporation). Samples were injected on to a Waters UPLC Acquity BEH C18 Column (2.1*50 mm, 1.7 μm) maintained at 50° C. The injection volume was 3 μL and the mobile phase flow rate was 0.45 mL/min. The mobile phase consisted of 2 solvents: A) 0.1% formic acid in water and B) 0.1% formic acid in acetonitrile. The initial mobile phase started with 5% solvent B for 0.4 min, which was changed to […] over 0.8 min with linear gradients and then maintained at 95% solvent B for another 0.4 min. The drug concentrations were acquired and processed with MassLynx 4.1 software. PK parameters were estimated using the non-compartment method within Phoenix® WinNonlin® Build 8.1 (Certara USA, Inc., Princeton, N.J.).
The unbound brain partition coefficient (Kp,uu) is defined as the ratio between unbound brain free drug concentration and unbound plasma concentration. It was calculated using the following equation:
Kp,uu=Cbrain×fu,b/(Cplasma*fu,p)
Cbrain and Cplasma represent the compound concentrations in brain and plasma, respectively. fu,b and fu,p are the unbound fraction of each testing article in brain and plasma, respectively. Both fu,b and fu,p were determined in vitro using Pierce Rapid Equilibrium Dialysis (RED) device at Absorption System LLC (Exton, Pa.). Kp,uu was calculated individually for each animal from multiple mouse PK studies and the average values are reported here.

HTT mRNA = assay: RT-qPCR quantification of HTT mRNA in HD patient fibroblasts, 24 h; format: cell-based, human; details: fibroblasts derived from HD patients
Protocol: Test compounds were serially diluted 3-fold in 100% DMSO to generate a 7-point concentration curve. A solution of test compound (500 nl, 200× in DMSO) was added to each test well with Acoustic Transfer System. Fibroblasts were seeded in 96-well flat-bottomed plates (Thermo Fisher Scientific) at 1×10^4 cells/well in 100 μl of culture medium containing the test compound or DMSO vehicle control and incubated for 24 hours (37° C., 5% CO2, 100% relative humidity). After removal of the supernatant, cells were lysed in RNA lysis buffer (1M Tris-HCL pH 7.4, 5M NaCl, 10% IGEPAL®CA-630; 50 μL/well) for 1 minute at RT, before 50 μL of chilled nuclease free water was added to each well; plates were then transferred immediately onto ice before storing at −80° C. overnight.
Cell lysates were assayed by quantitative reverse transcriptase polymerase chain reaction (RT-qPCR) to measure mRNA levels of HTT and glyceraldehyde 3-phosphate dehydrogenase (GAPDH) in the presence or absence of the test compound.
A reverse transcriptase quantitative polymerase chain reaction (RT-qPCR) reaction mixture of primers and probe sets for HTT and GAPDH was prepared according to TABLE III. […]

Row | NET MDR1 ER (MDR1) | Kp uu [1] | Compound | inclusion of intron 49 pseudoexon (HTT pre-mRNA) | HTT gene expression quantified using RNAseq (FPKM) (HTT pre-mRNA; 100 nM, SHSY5Y cells (HTT-C2), TK6 cells (HTT-C3)) | amount of HTT mRNA (HTT mRNA)
1 | 7.10 | 0.472 | CCN1CCC(c2cc3c(F)cc(-c4cc(C)c5nc(C)cn5n4)cc3nn2)CC1 [HTT-D3] | induced the inclusion of an Intron 49 pseudoexon | – | –
2 | – | 0.179 | CC1(C)CC(Oc2ccc(-c3ccc(-c4cn[nH]c4)cc3O)nn2)CC(C)(C)N1 [HTT-C2] | induced the inclusion of an Intron 49 pseudoexon | reduced HTT gene expression | –
3 | 11.8 | 0.242 | CCN1CCC(c2cc(C)c3nc(-c4ccc5nn(C)cc5c4)cc(=O)n3c2)CC1 [HTT-D1] | – | – | dose-dependent decrease
4 | >62.7 | 0.084 | CC1(C)CC(Oc2ccc(-c3ccc(-c4ccnc(O)c4)cc3O)nn2)CC(C)(C)N1 [HTT-C1] | induced the inclusion of an Intron 49 pseudoexon | – | dose-dependent decrease
